# Assay results taken from ChEMBL document CHEMBL5154919, “New ZW4864 Derivatives as Small-Molecule Inhibitors for the β-Catenin/BCL9 Protein-Protein Interaction” (ACS Med Chem Lett, 2022).
# Activity calls are given as the source filed them. The calls are words filed in the database; no cut-off is given here.
# Experiments:
# CYP2C9 = CYP2C9 (Homo sapiens, UniProt P11712); experiment: Inhibition of CYP2C9 in human liver microsomes using tolbutamide as substrate at 10 uM in presence of NADPH incubated for 10 mins; assay type: ADME, Microsome; conditions: probe tolbutamide
# Sequence of CYP2C9 (P11712 whole entry): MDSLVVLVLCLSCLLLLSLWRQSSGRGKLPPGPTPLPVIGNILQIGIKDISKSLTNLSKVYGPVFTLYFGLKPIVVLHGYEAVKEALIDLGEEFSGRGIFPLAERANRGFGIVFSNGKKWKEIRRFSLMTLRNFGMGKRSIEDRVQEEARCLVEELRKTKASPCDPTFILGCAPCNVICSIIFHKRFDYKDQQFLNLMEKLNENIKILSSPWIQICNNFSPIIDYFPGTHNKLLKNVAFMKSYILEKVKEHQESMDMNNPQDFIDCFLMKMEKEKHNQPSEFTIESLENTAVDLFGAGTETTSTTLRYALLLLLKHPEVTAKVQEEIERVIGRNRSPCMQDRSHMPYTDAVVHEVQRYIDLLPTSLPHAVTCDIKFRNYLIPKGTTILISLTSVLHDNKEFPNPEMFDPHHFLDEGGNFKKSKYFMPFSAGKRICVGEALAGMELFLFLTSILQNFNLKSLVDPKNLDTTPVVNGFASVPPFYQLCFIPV
# [1] = Effect of Wnt/beta-Catenin signaling pathway in human SW480 cells assessed as reduction in BCL9L level at 20 uM incubated for 24 hrs by qRT-PCR analysis relative to control; assay type: functional; conditions: SW480, 24 h
# [2] = Metabolic stability in mouse Hepatocyte assessed as half life; assay type: ADME, cell-based; conditions: hepatocytes
# HCT-116 = experiment: Antiproliferative activity against human HCT-116 cells assessed as inhibition of cell growth measured by MTS method; assay type: functional, cell-based
# [3] = Effect of Wnt/beta-Catenin signaling pathway in human SW480 cells assessed as reduction in HPRT level at 20 uM incubated for 24 hrs by qRT-PCR analysis relative to control; assay type: functional; conditions: SW480, 24 h
# MDA-MB-468 [4] = experiment: Effect of Wnt/beta-Catenin signaling in human MDA-MB-468 cells transfected with beta-catenin plasmid assessed as inhibition of cell growth rescue measured after 72 hrs by MTS assay; assay type: functional, cell-based
# MDA-MB-231 = experiment: Antiproliferative activity against human MDA-MB-231 cells assessed as inhibition of cell growth measured by MTS method; assay type: functional, cell-based
# CYP2D6 = CYP2D6 (Homo sapiens, UniProt P10635); experiment: Inhibition of CYP2D6 in human liver microsomes using bufuralol as substrate at 10 uM in presence of NADPH incubated for 10 mins; assay type: ADME, Microsome; conditions: probe bufuralol
# Sequence of CYP2D6 (P10635 whole entry): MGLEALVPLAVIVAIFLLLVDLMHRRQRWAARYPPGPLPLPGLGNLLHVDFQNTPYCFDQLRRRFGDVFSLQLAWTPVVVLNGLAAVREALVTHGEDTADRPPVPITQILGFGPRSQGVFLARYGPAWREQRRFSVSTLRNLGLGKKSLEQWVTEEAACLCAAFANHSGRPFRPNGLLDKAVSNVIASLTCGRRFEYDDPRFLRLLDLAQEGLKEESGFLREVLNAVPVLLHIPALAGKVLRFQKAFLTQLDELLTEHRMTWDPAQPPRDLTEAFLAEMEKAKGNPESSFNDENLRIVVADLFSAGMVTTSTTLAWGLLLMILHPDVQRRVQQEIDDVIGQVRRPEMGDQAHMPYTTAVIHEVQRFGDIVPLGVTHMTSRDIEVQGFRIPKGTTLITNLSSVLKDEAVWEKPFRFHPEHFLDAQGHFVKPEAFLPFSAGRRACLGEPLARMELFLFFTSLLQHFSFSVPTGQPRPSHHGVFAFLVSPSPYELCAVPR
# [5] = Effect of Wnt/beta-Catenin signaling pathway in human SW480 cells assessed as reduction in Cyclin D1 level at 20 uM incubated for 24 hrs by qRT-PCR analysis relative to control; assay type: functional; conditions: SW480, 24 h
# CYP3A4 = CYP3A4 (Homo sapiens, UniProt P08684); experiment: Inhibition of CYP3A4 in human liver microsomes using Midazolam as substrate at 10 uM in presence of NADPH incubated for 10 mins; assay type: ADME, Microsome; conditions: probe midazolam
# Sequence of CYP3A4 (P08684 whole entry): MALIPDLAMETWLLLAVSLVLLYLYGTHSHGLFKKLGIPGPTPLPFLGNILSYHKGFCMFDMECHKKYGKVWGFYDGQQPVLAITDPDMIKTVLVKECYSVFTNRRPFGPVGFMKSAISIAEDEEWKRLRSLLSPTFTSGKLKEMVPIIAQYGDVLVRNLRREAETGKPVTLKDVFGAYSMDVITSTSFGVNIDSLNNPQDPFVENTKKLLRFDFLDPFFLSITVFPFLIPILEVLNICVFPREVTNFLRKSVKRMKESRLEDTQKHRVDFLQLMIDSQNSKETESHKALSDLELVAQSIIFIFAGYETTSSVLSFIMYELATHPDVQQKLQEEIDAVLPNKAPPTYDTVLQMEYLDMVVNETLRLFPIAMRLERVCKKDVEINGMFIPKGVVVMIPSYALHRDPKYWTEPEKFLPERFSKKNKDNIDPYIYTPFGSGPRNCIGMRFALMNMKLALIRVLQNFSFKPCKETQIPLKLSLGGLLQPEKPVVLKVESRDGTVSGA
# [6] = Effect of Wnt/beta-Catenin signaling pathway in human SW480 cells assessed as HPRT level at 10 uM incubated for 24 hrs by qRT-PCR analysis relative to control; conditions: SW480, 24 h
# [7] = Effect of Wnt/beta-Catenin signaling pathway in human SW480 cells assessed as reduction in Axin2 level at 20 uM incubated for 24 hrs by qRT-PCR analysis relative to control; assay type: functional; conditions: SW480, 24 h
# [8] = Effect of Wnt/beta-Catenin signaling pathway in human SW480 cells assessed as reduction in BCL9L level at 10 uM incubated for 24 hrs by qRT-PCR analysis relative to control; assay type: functional; conditions: SW480, 24 h
# MDA-MB-468 [9] = experiment: Antiproliferative activity against human MDA-MB-468 cells assessed as inhibition of cell growth measured by MTS method; assay type: functional, cell-based
# MCF-10A = experiment: Antiproliferative activity against human MCF-10A cells assessed as inhibition of cell growth measured by MTS method; assay type: functional, cell-based
# SW480 [10] = experiment: Effect of Wnt/beta-Catenin signaling pathway in human SW480 cells assessed as decrease in Axin2 level at 20 uM incubated for 24 hrs by Western blot analysis; assay type: functional, cell-based; conditions: DDE = dose-dependent effect
# [11] = Effect of Wnt/beta-Catenin signaling pathway in human SW480 cells assessed as reduction in HPRT level at 5 uM incubated for 24 hrs by qRT-PCR analysis relative to control; assay type: functional; conditions: SW480, 24 h
# [12] = Effect of Wnt/beta-Catenin signaling pathway in human SW480 cells assessed as reduction in BCL9L level at 5 uM incubated for 24 hrs by qRT-PCR analysis relative to control; assay type: functional; conditions: SW480, 24 h
# [13] = Effect of Wnt/beta-Catenin signaling pathway in human SW480 cells assessed as reduction in Cyclin D1 level at 5 uM incubated for 24 hrs by qRT-PCR analysis relative to control; assay type: functional; conditions: SW480, 24 h
# [14] = biological target: beta-catenin-B-cell lymphoma 9 protein complex (Homo sapiens) (UniProt P35222+O00512); experiment: Disruption of beta-catenin/N-terminal biotinylated human BCL9 HD2 (350 to 375 residues) protein-protein interaction in human SW480 cells incubated for 1 hr followed by N-terminal biotinylated human BCL9 HD2 addition and measured after 2 hrs by immunoblot based pull-down assay; assay type: cell-based; conditions: time 3.0 hrs, DDE = dose-dependent effect
# [15] = Effect of Wnt/beta-Catenin signaling pathway in human SW480 cells assessed as reduction in Cyclin D1 level at 10 uM incubated for 24 hrs by qRT-PCR analysis relative to control; assay type: functional; conditions: SW480, 24 h
# [16] = Effect of Wnt/beta-Catenin signaling pathway in human SW480 cells assessed as reduction in Axin2 level at 5 uM incubated for 24 hrs by qRT-PCR analysis relative to control; assay type: functional; conditions: SW480, 24 h
# [17] = Inhibition of Wnt/beta-catenin transactivation signalling in human SW480 cells by TOPFlash reporter gene assay; assay type: cell-based
# SW480 [18] = experiment: Antiproliferative activity against human SW480 cells assessed as inhibition of cell growth measured by MTS method; assay type: functional, cell-based
# [19] = Metabolic stability in human Hepatocyte assessed as half life; assay type: ADME, cell-based; conditions: hepatocytes
# SW480 [20] = experiment: Inhibition of Wnt/beta-catenin transactivation signalling in human SW480 cells transfected with beta-catenin plasmid at 10 uM by TOPFlash luciferase assay; assay type: cell-based
# [21] = Effect of Wnt/beta-Catenin signaling pathway in human SW480 cells assessed as reduction in Axin2 level at 10 uM incubated for 24 hrs by qRT-PCR analysis relative to control; assay type: functional; conditions: SW480, 24 h
smiles,measurement,setting,value
CC(C)(Oc1cccc(N2CCC[C@@H](C(=O)N(Cc3ccc(-c4cnc5[nH]ccc5c4)cc3)C3CC3)C2)c1)C(=O)N1CCNCC1.Cl,"inhibition at 10 min, 10 µM",CYP2C9,91%
same,"level, % of control at 20 µM",[1],32%
same,half-life,[2],11.6 min
same,IC50,HCT-116,9.5 µM
same,"level, % of control at 20 µM",[3],99%
same,inhibition,MDA-MB-468 [4],Active
same,IC50,MDA-MB-231,6.3 µM
same,"inhibition at 10 min, 10 µM",CYP2D6,54%
same,"level, % of control at 20 µM",[5],29%
same,"inhibition at 10 min, 10 µM",CYP3A4,97%
same,"level, % of control at 10 µM",[6],100%
same,"level, % of control at 20 µM",[7],19%
same,"level, % of control at 10 µM",[8],52%
same,IC50,MDA-MB-468 [9],5 µM
same,IC50,MCF-10A,36 µM
same,inhibition,SW480 [10],Dde
same,"level, % of control at 5 µM",[11],99%
same,"level, % of control at 5 µM",[12],77%
same,"level, % of control at 5 µM",[13],89%
same,inhibition,[14],Dde
same,"level, % of control at 10 µM",[15],54%
same,"level, % of control at 5 µM",[16],72%
same,IC50,[17],7 µM
same,IC50,SW480 [18],14 µM
same,half-life,[19],25.2 min
same,inhibition,SW480 [20],Active
same,"level, % of control at 10 µM",[21],56%
